Data on two molecules can be found in patent US20240010961A1 (priority 2020, published 2024).

Like-named read-outs stand apart in the source and are kept apart here.

The test system of one data set is hepatocytes. In words: MOI validation: hepatocyte drug metabolism quantified in culture medium by liquid chromatography mass spectrometry. The format is in vitro ADME. The note with it: hepatocytes in well insert, medium sampled 0.5-72 h. As to the method:
The MOI can be validated for all drugs of interest prior to applying it to sarcoma organoids. In one embodiment, the validation process includes printing 1,000-20,000 hepatocytes in the well insert and incubating in medium for 72 hours. In some embodiments, between about 5,000 and about 10,000 hepatocytes are provided in the well insert. At the 0.5, 1, 2, 4, 8, 12, 24, 48 and 72 h time-points, culture medium is collected from the well. Liquid chromatography mass spectrometry can be used to quantify the parent compound, its metabolites, and their concentrations. The goal is to identify conditions that recreate in vivo drug metabolism. […] To optimize these parameters, the size, shape, and cell density of the well insert can be changed if necessary. Hepatocyte viability and proliferation can be assessed for each time-point by Calcein AM and propidium iodide staining as well as an ATP assay. Optimal hepatocyte conditions and incubation periods for each drug can then be used in subsequent experiments.

A further data set has as its system EW-7 (Ewing's sarcoma). To be noted: EW-7 in mice; cited from earlier work.
Another data set has as its system SAOS-LM7 (osteosarcoma). To be noted: cited from earlier work.

Text for tumor cells: Using the MOI device, tumor cells were co-cultured without, FIG. 12A, and with, FIG. 12B, liver organoid suspended on the MOI device.

On to `O=P1(N(CCCl)CCCl)NCCCO1` (centres unmarked) [cyclophosphamide], for which the tumor cell viability result in the data set on tumor cells (control, without liver organoid on the MOI device (FIG. 12A), logarithmically increasing concentration) is “not significantly diminished”; in the data set with tumor cells (with MOI-device-supported liver organoid (FIG. 12B), higher CP concentrations) it was “decreased”.
For `O=P1(NCCCl)OCCCN1CCCl` (centres unmarked) [ifosfamide], the “fraction converted into chloro-acetaldehyde” value in the data set with hepatocytes is 25-50%. Also, the “sensitivity of cell line in mice” value with EW-7 (Ewing's sarcoma) and in the data set on SAOS-LM7 (osteosarcoma) was “sensitive” throughout.
